The target of one assay is Rhok2 (Homo sapiens, UniProt O75116). The experiment in a line: Enzymatic Rho kinase assay (Kinase-Glo luminescence, S6 peptide substrate). It counts as biochemical. Particulars: Rhok2 enzyme, 2 hours at 25 degrees Celsius. How it is done: Enzymatic Rho kinase (ROCK I and ROCK II) Assays.
The assay is based on ability of Rhok2 to phosphorylate a specific peptide sequence derived from its substrate—ribosomal protein S6 (amino acid residues 229-239, (LCB-[…]-NH2)). Rhok2 uses ATP as a donor of phosphate for the phosphorylation of the substrate, which leads to the depletion of ATP in the reaction mix. An assay kit (“Kinase-Glo”, Promega) was used to quantify enzyme activity. Using this kit, residual amounts of ATP are measured by a secondary enzymatic reaction, through which luciferase utilizes the remaining ATP to produce luminescence. Luminescent signal is directly proportional to ATP concentration and inversely proportional to Rhok2 activity.
This dose response assay was conducted in 1536 well plate format. Each concentration was tested nominally in triplicate. […] Plates were incubated for 10 minutes and luminescence was read on Perkin-Elmer Viewlux for 60 seconds. […] The percent inhibition for each well has been calculated as follows: % inhibition=(test compound−median_negative_control)/(median_positive_control−median_negative_control)*100 where the positive control is Y-27632 (13 micromolar) and negative control is DMSO only. […]
For orientation: Kinase-Glo measures the ATP left after a reaction by luminescence.

The next assay deals with N2a cells. The experiment in a line: Neurite Length Assay (N2a, cell assay). It counts as cell-based. The conditions noted are these: Mus musculus, neurite retraction induced by 5 uM LPA. How it is done:
Neurite Length Assay (N2a, Cell Assay).
N2a cells are maintained in DMEM/FBS at 37 C and 5% CO2. For the experiment the cells were plated on a poly-D-lysine coated 96-well tissue culture plate. After attachment, cell differentiation was induced for 2 days by addition of 10 uM retinoic acid. Cells were treated for 1 h with a dilution of compounds in 0.3% DMSO final concentration before neurite retraction was induced by 5 uM LPA. Cells were stained for tubulin and nuclei and images were acquired on a INCell 1000 workstation. Images were analyzed using the developer toolbox and neurite length was quantitated. […] For example, the IC50 of Example 169 is 4 nM.

The test system of a further assay is smooth muscle cells. The experiment in a line: Myosin Light Chain Double Phosphorylation Assay (ppMLC, cell assay). It counts as cell-based. Particulars: serum starved smooth muscle cells, compound 1 h, LPA 30 min. How it is done:
Myosin Light Chain Double Phosphorylation Assays (ppMLC, cell assay).
Serum starved smooth muscle cells were incubated with compound for 1 h before induction of myosin light chain phosphorylation by LPA for 30 min. Cells were washed and fixed before staining for phosphorylated myosin light chain and DNA. Phosphorylation status was quantitated with the LI-COR Odyssey Imager. […] For example, the IC50 of Example 169 is 6 nM.

Sequence of Rhok2 (O75116 whole entry, the tested form may be a part): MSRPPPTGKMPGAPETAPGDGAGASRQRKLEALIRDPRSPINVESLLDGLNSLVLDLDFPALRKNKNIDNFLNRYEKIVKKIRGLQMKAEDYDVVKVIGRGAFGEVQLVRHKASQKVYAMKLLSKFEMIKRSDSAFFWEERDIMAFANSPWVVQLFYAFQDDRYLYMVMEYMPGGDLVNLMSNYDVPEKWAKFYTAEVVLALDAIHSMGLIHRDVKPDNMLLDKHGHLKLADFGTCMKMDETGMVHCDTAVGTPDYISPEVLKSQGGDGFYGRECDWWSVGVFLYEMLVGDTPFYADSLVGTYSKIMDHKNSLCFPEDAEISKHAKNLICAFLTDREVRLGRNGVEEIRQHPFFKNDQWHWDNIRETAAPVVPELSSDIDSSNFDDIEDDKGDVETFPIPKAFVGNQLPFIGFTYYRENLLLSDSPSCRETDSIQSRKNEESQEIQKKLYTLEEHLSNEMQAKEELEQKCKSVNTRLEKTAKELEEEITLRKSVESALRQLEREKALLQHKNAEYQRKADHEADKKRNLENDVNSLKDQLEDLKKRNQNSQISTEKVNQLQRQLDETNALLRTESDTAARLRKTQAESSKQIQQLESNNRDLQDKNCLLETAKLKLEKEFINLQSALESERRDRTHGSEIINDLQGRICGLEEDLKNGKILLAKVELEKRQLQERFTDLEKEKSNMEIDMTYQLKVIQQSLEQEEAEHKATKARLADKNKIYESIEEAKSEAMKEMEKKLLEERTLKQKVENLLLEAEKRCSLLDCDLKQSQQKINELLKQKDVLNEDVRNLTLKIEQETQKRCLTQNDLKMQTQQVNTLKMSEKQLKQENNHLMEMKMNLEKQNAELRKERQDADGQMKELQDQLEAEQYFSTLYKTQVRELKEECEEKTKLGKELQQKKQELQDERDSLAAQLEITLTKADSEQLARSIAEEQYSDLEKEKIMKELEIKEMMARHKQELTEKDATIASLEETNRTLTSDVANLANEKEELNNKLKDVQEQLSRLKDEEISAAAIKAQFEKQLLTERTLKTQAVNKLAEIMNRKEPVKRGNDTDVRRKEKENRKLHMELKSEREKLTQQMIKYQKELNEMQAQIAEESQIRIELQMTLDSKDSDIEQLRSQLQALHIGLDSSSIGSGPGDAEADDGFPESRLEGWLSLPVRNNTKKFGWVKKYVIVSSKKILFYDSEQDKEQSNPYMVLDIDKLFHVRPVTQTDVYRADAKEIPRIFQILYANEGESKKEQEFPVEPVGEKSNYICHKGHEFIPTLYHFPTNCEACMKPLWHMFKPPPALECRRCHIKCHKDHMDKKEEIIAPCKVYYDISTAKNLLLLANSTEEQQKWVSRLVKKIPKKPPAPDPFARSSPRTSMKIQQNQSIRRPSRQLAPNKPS

`COc1ccc2c(c1)CC(c1nc3cc(-c4ccncc4)cc(F)c3[nH]1)CO2` (stereo not drawn) [Example 169, 7-fluoro-2-(6-methoxychroman-3-yl)-5-(pyridin-4-yl)-1H-benzo[d]imidazole]: the IC50 (commonly the point on the concentration scale where inhibition reaches its midpoint) was 6 nM at Rhok2, 4 nM in the assay on N2a cells and 6 nM in the assay with smooth muscle cells.

The values are drawn from patent publication US20110052562A1, “BENZIMIDAZOLES AND ANALOGS AS RHO KINASE INHIBITORS” (The Scripps Research Institute, priority 2007, published 2011).
